The target in one series is recombinant human PDE5 (Homo sapiens, UniProt O76074). Put plainly: Inhibitory effect on cGMP-PDE (PDE5 IC50 determination). The format is biochemical. As to conditions: in vitro. The procedure: The compounds of structural formula (I) were tested for an ability to inhibit PDE5. The ability of a compound to inhibit PDE5 activity is related to the IC50 value for the compound, i.e., the concentration of inhibitor required for 50% inhibition of enzyme activity. The IC50 value for compounds of structural formula (I) were determined using recombinant human PDE5.
Phosphodiesterase activity of the preparations was determined as follows. PDE assays utilizing a charcoal separation technique were performed essentially as described in Loughney et al. (1996). In this assay, PDE activity converts [32P]cAMP or [32P]cGMP to the corresponding [32P]5′-AMP or [32P]5′-GMP in proportion to the amount of PDE activity present. The [32P]5′-AMP or [32P]5′-GMP then was quantitatively converted to free [32P]phosphate and unlabeled adenosine or guanosine by the action of snake venom 5′-nucleotidase. […] The assay was performed at 30° C. in a 100 μL reaction mixture containing (final concentrations) 40 mM Tris HCl (pH 8.0), 1 μM ZnSO4, 5 mM MgCl2, and 0.1 mg/mL bovine serum albumin (BSA). PDE enzyme was present in quantities that yield <30% total hydrolysis of substrate (linear assay conditions). The assay was initiated by addition of substrate ([…] [32P]cAMP or cGMP), and the mixture was incubated for 12 minutes. seventy-five (75) μg of Crotalus atrox venom then was added, and the incubation was continued for 3 minutes (15 minutes total). The reaction was stopped by addition of 200 μL of activated charcoal (25 mg/mL suspension in 0.1 M NaH2PO4, pH 4). After centrifugation (750×g for 3 minutes) to sediment the charcoal, a sample of the supernatant was taken for radioactivity determination in a scintillation counter and the PDE activity was calculated.
cGMP-PDE activity of compounds of the present invention was measured using a one-step assay adapted from Wells et al., Biochim. Biophys. Acta, 384, 430 (1975). The reaction medium contained 50 mM Tris-HCl, pH 7.5, 5 mM magnesium acetate, 250 μg/ml 5′-Nucleotidase, 1 mM EGTA, and 0.15 μM 8-[H^3]-cGMP. Unless otherwise indicated, the enzyme used was a human recombinant PDE5 (ICOS Corp., Bothell, Wash.).
Compounds of the invention were dissolved in DMSO finally present at 2% in the assay.

The IC50 is the point on the concentration scale where inhibition reaches its midpoint. The term melting point denotes the temperature of the solid-liquid transition. `CC(=O)n1c2c(c3ccccc31)C[C@@H]1C(=O)N(C)CC(=O)N1[C@@H]2c1ccc2c(c1)OCO2` [Example 4, (6R,12aR)-7-Acetyl-6-benzo[1,3]dioxol-5-yl-2-methyl-2,3,6,7,12,12a-hexahydropyrazino-[1′,2′:1,6]pyrido[3,4-b]indole-1,4-dione]: the melting point lay within 145 to 159 °C. At recombinant human PDE5, the IC50 was found to be 7 nM.

Consider `CN1CC(=O)N2[C@H](c3ccc4c(c3)OCO4)c3c(c4ccccc4n3Cc3ccccc3)C[C@H]2C1=O` [Example 3, (6R,12aS)-6-Benzo[1,3]dioxol-5-yl-7-benzyl-2-methyl-2,3,6,7,12,12a-hexahydropyrazino-[1′,2′:1,6]pyrido[3,4-b]indole-1,4-dione], for which the melting point fell in the range of 110 to 145 °C. Further, the IC50 on recombinant human PDE5 stood at 313 nM.

`CN1CC(=O)N2[C@H](c3ccc4c(c3)OCO4)c3c(c4ccccc4n3C)C[C@@H]2C1=O` [Example 2, (6R,12aR)-6-Benzo[1,3]dioxol-5-yl-2,7-dimethyl-2,3,6,7,12,12a-hexahydropyrazino[1′,2′:1,6]-pyrido[3,4-b]indole-1,4-dione]: at recombinant human PDE5, the 50% inhibitory concentration (IC50) turned out to be 571 nM. Compound `CN1CC(=O)N2[C@H](c3ccc4c(c3)OCO4)c3c(c4ccccc4n3C)C[C@H]2C1=O` [Example 1, (6R,12aS)-6-Benzo[1,3]dioxol-5-yl-2,7-dimethyl-2,3,6,7,12,12a-hexahydropyrazino[1′,2′:1,6]-pyrido[3,4-b]indole-1,4-dione] showed a melting point of 386 to 387 °C. The IC50 at recombinant human PDE5 came out at 124 nM.

For the origin of these results see patent US7098209B2, “Pyrazino [1'2':1,6 ] pyrido [3, 4-b] indole-1,4-dione derivatives” (Lilly Icos LLC, priority 2001, dated 2006).
